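96-well plates; 48 h exposure; 5 concentrations. Endpoints by linear interpolation between flanking doses. Not reached: highest tested concentration assigned. GI50: concentration for 50% inhibition of growth. TGI denotes the concentration required for complete inhibition of growth.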
How the values were obtained:
Experiment in all cases: DTP human tumour cell line panel, 48 h
ACHN renal = test system: ACHN renal
NCI-H226 lung = test system: NCI-H226 lung
EKVX NSCLC = test system: EKVX NSCLC
SW-620 colon = test system: SW-620 colon
HCT-116 colon = test system: HCT-116 colon
COLO 205 colon = test system: COLO 205 colon
U251 CNS = test system: U251 CNS
RXF 393 renal = test system: RXF 393 renal
SF-539 CNS = test system: SF-539 CNS
HOP-62 NSCLC = test system: HOP-62 NSCLC

| Structure (SMILES) | TGI (ACHN renal) [µM] | TGI (NCI-H226 lung) [µM] | TGI (EKVX NSCLC) [µM] | TGI (SW-620 colon) [µM] | TGI (HCT-116 colon) [µM] | TGI (COLO 205 colon) [µM] | TGI (U251 CNS) [µM] | GI50 (ACHN renal) [µM] | GI50 (RXF 393 renal) [µM] | TGI (RXF 393 renal) [µM] | GI50 (EKVX NSCLC) [µM] | GI50 (SW-620 colon) [µM] | GI50 (SF-539 CNS) [µM] | TGI (SF-539 CNS) [µM] | GI50 (HCT-116 colon) [µM] | GI50 (COLO 205 colon) [µM] | GI50 (HOP-62 NSCLC) [µM] | TGI (HOP-62 NSCLC) [µM] | GI50 (U251 CNS) [µM] | GI50 (NCI-H226 lung) [µM] |
| --- | --- | --- | --- | --- | --- | --- | --- | --- | --- | --- | --- | --- | --- | --- | --- | --- | --- | --- | --- | --- |
| COC(=O)C1Cc2c(n(C)c3ccccc23)C(c2ccccc2)N1 (stereo not drawn) | > 100 | > 100 | > 100 | > 100 | > 100 | > 100 | > 100 |  |  |  |  |  |  |  |  |  |  |  |  |  |
| CS(=O)(=O)c1ccc(Oc2nccc(-c3c(-c4ccc(F)cc4)ncn3C3CCNCC3)n2)cc1 | > 25 |  | > 25 | > 25 | > 25 | > 25 | > 25 | > 25 | > 25 | > 25 | > 25 | > 25 | > 25 | > 25 | > 25 | > 25 | > 25 | > 25 | > 25 |  |
| O=[N+]([O-])c1ccc(OCCNc2cccc3ccccc23)cc1 | > 100 | > 100 | > 100 | > 100 | > 100 | > 100 | > 100 |  |  |  |  |  |  | > 100 |  |  |  | > 100 |  |  |
| N#Cc1c2ccccc2c2nnc3cc(C(F)(F)F)ccc3n12 | > 100 |  | > 100 | > 100 | > 100 | > 100 | > 100 | 25.7 |  |  | > 100 | > 100 |  |  | 25.4 | 37.4 | 27.6 | 58.3 | 51.2 |  |
| CCCCCCC(O)C/C=C/CCCCCC/C(C(=O)OC)=C(/O)C(=O)OCC (stereo not drawn) | > 100 | > 100 | > 100 | > 100 | > 100 | > 100 | > 100 |  |  |  |  |  |  | > 100 |  |  |  | > 100 |  |  |
| CC(=O)CC(=O)CCCC(=O)Nc1ccc(Cl)cc1Cl | > 100 | > 100 |  | > 100 | > 100 | > 100 |  |  |  |  |  |  |  | > 100 |  |  |  | > 100 |  |  |
| CN(C)CCN1N=Nc2cccc3cccc1c23 | > 100 | > 100 | > 100 | > 53.6 | > 100 | > 100 | > 100 |  |  |  |  |  |  | > 100 |  |  |  | > 100 |  |  |
| CC1=C(C(=O)Nc2ccc(F)c(Cl)c2)C(c2cccc(O)c2)NC(=S)N1 (stereo not drawn) | > 50 |  | > 50 | > 50 | > 50 | > 50 | > 50 | 24.5 | 14 | 30.5 | 17.8 | 20.6 |  |  | 34.2 | 22.2 | > 50 | > 50 | 16.6 |  |
| COc1cc(/C=C2\CC(C)CC3C2=NN(c2ccccc2)C3c2cc(OC)c(OC)c(OC)c2)cc(OC)c1OC (stereo not drawn) | 44.6 | > 100 | > 100 | 22.5 | 33.1 | > 100 | 39 | 11 |  |  | 13.5 | 10.7 | 16.6 | 36.2 | 6.21 | 17.5 |  |  | 9.77 | 37.4 |
| CCOC(=O)c1[nH]c2cccc3c2c1CC(Br)C3=O (stereo not drawn) | 20.2 | 37.2 | 32.2 | 5.41 | 7.79 | 27.2 | 30.1 |  |  |  |  |  |  | 30.4 |  |  |  | 33.6 |  |  |
| CC1(c2ccccc2)CC12C(=O)NC(=O)NC2=O (stereo not drawn) | > 100 | > 100 | > 100 | > 100 | > 100 | > 100 | > 100 |  |  |  |  |  |  | > 100 |  |  |  | > 100 |  |  |
| O=P(Oc1ccccc1)(Oc1ccccc1)C(O)c1ccccc1 (stereo not drawn) | > 100 |  | > 100 | > 100 | > 100 | > 100 | > 100 | > 100 | 60.6 | > 100 | 26.5 | > 100 | > 100 | > 100 | 65.9 | 35 | 39.3 | > 100 | 48.9 |  |
| COC(=O)[C@H](C)[C@H]1CC[C@@](C)([C@H]2CC3C(C)(C)[C@H]4CCC(C)=C[C@H]4C[C@@]3(C)O2)OO1 (stereo partly drawn) | 23.4 | 28.9 | 27.6 | 27 | 22.3 | 23.8 | 26.1 |  |  |  |  |  |  | 28.4 |  |  |  | 37.1 |  |  |
| NC(=O)c1csc(C2O[C@@H](COP(=O)(O)OP(=O)(O)OC[C@H]3OC(n4cnc5c(N)ncnc54)[C@H](O)[C@@H]3O)[C@H](O)[C@@H]2O)n1 (stereo partly drawn) | > 100 | > 100 | > 100 | > 100 |  | > 100 | > 100 |  |  |  |  |  |  | > 100 |  |  |  | > 100 |  |  |
| O=C(Nc1cccc(C2=NCCN2)c1)c1ccc(OCCCOc2ccc(C(=O)Nc3cccc(C4=NCCN4)c3)cc2)cc1 | > 100 |  |  |  |  |  |  | 21.8 | 5.78 | > 100 |  |  |  |  |  |  | 4.45 | > 100 |  |  |
| COc1cccc(/C=C\c2cc(OC)c(OC)c(OC)c2)c1 | > 100 | 83.9 | > 100 | > 100 | > 100 | 17.3 | 23 |  |  |  |  |  |  | > 100 |  |  |  | > 100 |  |  |
